Experimental data as given in PMC5314947 (Cancer prevention research (Philadelphia, Pa.), 2009).
Where “and” joins values, the source holds several entries; their conditions need not be identical. Identical values can stand only once.

What was measured:
[1] = human, in vivo, po
[2] = human, in vivo, po; remark: listed apart in the source
[3] = rhesus monkey, in vivo; cited from earlier work
[4] = rat, in vivo; cited from earlier work

## COc1cc2c(c3oc(=O)c4c(c13)CCC4=O)[C@@H]1C=CO[C@@H]1O2 [AFB1, aflatoxin B1]
[1]
  AFB1 dose excreted in urine in the first 72 hours: 29.0 ± 2.31% and 34.4 ± 5.60% and 33.3 ± 2.79%
[2]
  AUC_Extrap of AFB1 equivalents in plasma: 50.9 ± 8%
  Tmax of AFB1 equivalents in plasma: 1.0 h and ~ 1 h
  ka (absorption rate constant) of AFB1 equivalents in plasma: 5.05 ± 1.10 h⁻¹
  t1/2α (harmonic mean) of AFB1 equivalents in plasma: 2.86 h
  Á (disposition rate constant) of AFB1 equivalents in plasma: 0.24 ± 0.06 h⁻¹
  β (disposition rate constant) of AFB1 equivalents in plasma: 0.01 ± 0.003 h⁻¹
[3]
  dose eliminated in urine as unbound within the first 24 hours: ~ 30%
  dose remaining in the liver: 13.6%
  dose remaining in the plasma: 5.8%
[4]
  in situ absorption rate constant: 5.84 ± 0.05 h⁻¹
